Experimental data: article PMC4104029, “Mechanism of Action of Compound-13: An α1-Selective Small Molecule Activator of AMPK” (Chemistry & Biology, 2014)

Experiments:
[1] = system: 5′-nucleotidase; assay: 5′-Nucleotidase assay; format: biochemical; settings: concentrations up to 100 μM; data not shown
Experimental: Additional enzyme assays. Glycogen phosphorylase (EC 2.4.1.1) was assayed in the physiological direction in reactions containing 20 mM BES pH 6.8, 20 mM phosphate, 1 mM NADP+, 0.5 mM MgCl2, 0.1 % glycogen, 4 µM glucose-1,6-bisphosphate, 0.5 mM DTT, 0.025 % BSA, 0.6 U/ml phosphoglucomutase and 3 U/ml glucose-6-phosphate dehydrogenase (G6PDH). FBP1 (EC 3.1.3.11) was assayed in reactions containing 50 mM TES pH 7.4, 0.1 […]
mM 2-mercaptoethanol, 25 µM fructose-1,6-bisphosphate, 0.8 U/ml phosphoglucoisomerase and 0.5 U/ml G6PDH. PFK1 (EC 2.7.1.11) was assayed in reactions containing 50 mM TES pH 7.4, 2 mM MgCl2, 0.05 % BSA, 2 mM 2-mercaptoethanol, 0.5 mM fructose-6-phosphate, 1 mM ATP, 0.2 mM NADH, 0.5 U/ml aldolase, 15 U/ml triosephosphate isomerase and 2 U/ml α-glycerophosphate dehydrogenase. […] All assays were performed in a final volume of 250 µl and were monitored by changes in fluorescence (FBP1 - λex 340nm, λem 450nm) or A340. […] Liberated phosphate was determined using malachite green reagent. […] The formation of pyrophosphate (PPi) was monitored by reduction of PPi-molybdate complexes using 2-mercaptoethanol and Fiske-Subbarow reducer (Kuang, et al., 2007). […]
Tricistronic expression vectors were constructed using a strategy inspired by Neumann et al (Neumann, et al., 2003). […] The open reading frame of AMPKα1 and AMPKα2 was inserted after the 6×His tag as a Bamh1-Not1 fragment. […]

[2] = target: T1, WT FLAG-α2, β1, and γ1 in COS1 cells (Homo sapiens, UniProt P54619+P54646); assay: Kinase activity in anti-FLAG immunoprecipitates from treated COS1 cells; format: cell-based; settings: up to 100 μM, 1 h
T1 construct: expressed in transfected cells; host or cells: COS-1 cells
T1 sequence (P54646 whole entry): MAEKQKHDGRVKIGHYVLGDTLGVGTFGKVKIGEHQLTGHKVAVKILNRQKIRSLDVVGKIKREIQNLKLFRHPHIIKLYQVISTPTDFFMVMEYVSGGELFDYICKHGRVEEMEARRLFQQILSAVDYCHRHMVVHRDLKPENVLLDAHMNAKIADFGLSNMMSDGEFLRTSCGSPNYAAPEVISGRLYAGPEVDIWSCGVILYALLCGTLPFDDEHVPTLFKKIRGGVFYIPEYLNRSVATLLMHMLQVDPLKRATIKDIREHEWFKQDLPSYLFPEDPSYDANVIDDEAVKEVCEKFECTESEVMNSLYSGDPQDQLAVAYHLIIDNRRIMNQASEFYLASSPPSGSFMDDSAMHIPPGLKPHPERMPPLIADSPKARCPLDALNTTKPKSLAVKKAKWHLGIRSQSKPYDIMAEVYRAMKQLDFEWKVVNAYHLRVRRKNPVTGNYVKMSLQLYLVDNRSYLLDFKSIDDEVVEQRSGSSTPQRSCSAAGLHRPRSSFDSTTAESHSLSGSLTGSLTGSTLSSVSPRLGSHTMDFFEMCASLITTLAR
T1 sequence (Q9Y478 whole entry partner): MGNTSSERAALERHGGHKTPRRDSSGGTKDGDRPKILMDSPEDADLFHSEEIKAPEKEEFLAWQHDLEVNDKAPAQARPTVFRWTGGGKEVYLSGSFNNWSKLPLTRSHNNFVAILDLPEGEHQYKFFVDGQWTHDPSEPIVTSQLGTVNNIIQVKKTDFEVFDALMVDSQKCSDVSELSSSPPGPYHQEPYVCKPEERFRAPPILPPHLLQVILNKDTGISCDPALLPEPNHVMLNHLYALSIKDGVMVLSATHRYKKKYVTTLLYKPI
T1 sequence (P54619 whole entry): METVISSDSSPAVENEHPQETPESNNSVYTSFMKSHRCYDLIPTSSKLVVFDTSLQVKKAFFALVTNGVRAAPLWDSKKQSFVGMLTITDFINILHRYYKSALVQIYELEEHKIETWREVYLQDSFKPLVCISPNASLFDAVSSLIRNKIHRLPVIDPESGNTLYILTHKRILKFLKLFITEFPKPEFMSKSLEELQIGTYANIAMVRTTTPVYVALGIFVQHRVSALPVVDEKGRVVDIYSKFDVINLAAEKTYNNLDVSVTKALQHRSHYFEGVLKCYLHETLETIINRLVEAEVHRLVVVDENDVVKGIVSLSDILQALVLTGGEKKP
Excerpt: (Needleman and Wunsch, 1970) and edited using ESPript (Gouet, et al., 2003). Secondary structure was derived from PDBID 2Y94. The phosphotransferase domain is shaded green (T-loop phosphorylation site is indicated with a star), the autoinhibitory domain in blue and the C-terminal domain in yellow. Regulatory elements in the α-linker are also indicated: α-hook in pink and α-RIMs in orange. Black lines indicate the position of the epitopes recognised by α-subunit specific antibodies used in this study. (B) COS-1 cells were seeded into 6-well plates and transiently transfected with pCMV-AMPKβ1, pCMV-AMPKγ1 and either pCMV-FLAG-AMPKα2 WT or pCMV-FLAG-AMPKα2/α1 LOOP chimera using FuGENE HD.
After 24 h cells were treated with the indicated compounds for 1 h and kinase activity determined in anti-FLAG immunoprecipitates under standard conditions. […]
Mouse hepatocytes were incubated with the indicated compounds in the absence (Resting) or presence of 10 mU/ml insulin for 60 min. Lysates were analysed by Western blotting using the indicated antibodies. […]
Yeast acetate CoA ligase (Sigma) was assayed in reactions containing 50 mM TES pH 7.4, 0.1 mM EDTA, 5 mM MgCl2, 4 mM ATP, 0.2 mM coenzyme A, 5 mM DTT and increasing concentrations of C2 and C13 (0 – 100 μM). The formation of pyrophosphate (PPi) was monitored by reduction of PPi-molybdate complexes as described in Methods. […]

Structure (SMILES)	effect on enzyme activity [1]	kinase activation in cells [2]
O=P(O)(O)c1ccc(-c2cc(O)on2)o1 [Compound C2, 5-(5-hydroxyl-isoxazol-3-yl)-furan-2-phosphonic acid]	None of these enzymes were affected	
CC(C)C(=O)OCOP(=O)(OCOC(=O)C(C)C)c1ccc(C2=NOC(=O)C2)o1 [Compound C13]		unresponsive
